Assay results as given in paper PMC2120445 (The Journal of Cell Biology, 1995).
Like-named read-outs stand apart in the source and are kept apart here. Where no end group is shown, it is not given here.

What was measured:
[1] = test system: sciatic nerve fibroblasts; test: Intracellular cAMP accumulation in sciatic nerve fibroblasts; assay type: cell-based, rat; settings: for dependence of cAMP effect on culture age: with IBMX, 2 d versus 7 d cultures, Fig. 2
Schwann cells = settings: cited from earlier work; for promotion of Schwann cell proliferation: rat sciatic nerve Schwann cells in culture, ref Eccleston, 1992, Ratner et al., 1988
macrophages = settings: ref Wiik, 1989; Vignery et al., 1991; cited from earlier work
cultured Schwann cells = settings: ref Yasuda et al., 1988; cited from earlier work
[2] = test system: Schwann cells (rat sciatic nerve); assay type: cell-based; settings: for BrdU incorporation compared with forskolin: agent alone, without PDGF, pulsatile regime; for doubling time / cells synthesizing DNA in 24 h: in the presence of PDGF; for doubling time: estimated from cells synthesizing DNA; for cells synthesizing DNA in 24 h: increased from 10%, Discussion
[3] = test system: Schwann cells (rat sciatic nerve); assay type: cell-based; settings: for attenuation (desensitization) of cAMP response with time: Schwann cells, even in the presence of IBMX
[4] = test system: neutral endopeptidase 24.11; settings: ref Davies et al., 1992; Turner, A. J., personal communication; cited from earlier work
erbB2 receptor = settings: Schwann cells; ref Weinmaster and Lemke (1990), Mudge, 1993 (review); cited from earlier work
PDGF receptor = settings: ref Weinmaster and Lemke, 1990, cited from earlier work
[5] = test system: sciatic nerve fibroblasts; test: Proliferation of sciatic nerve fibroblasts induced by PDGF; assay type: cell-based, rat; settings: Kahn and Mudge, unpublished results
[6] = test system: Schwann cells (rat sciatic nerve); assay type: cell-based; settings: for doubling time: estimated from BrdU incorporation
[7] = with 10 ng/ml PDGF-BB, pulsatile, Fig. 6 b
[8] = cultured Schwann cells, ref Raff et al., 1978a,b, Ridley et al., 1989, Davis and Stroobant, 1990, Weinmaster and Lemke, Chen et al., 1991, Stewart et al., Goodearl et al., 1993, Marchionni et al.

With peptide histidine-isoleucine [PHI] as the molecule, how does the “dependence of cAMP effect on culture age” value [1] read?
The value was “only seen in the older cultures”.

Which results are given for glial growth factor [GGF]?
promotion of Schwann cell proliferation (Schwann cells): promote the proliferation; mitogenicity without forskolin / enhancement of GGF effect (Schwann cells; ref Davis and Stroobant, 1990, Goodearl et al., 1993, Marchionni et al.): is a mitogen without forskolin

Which cAMP in macrophages (macrophages) does the source give for “vasoactive intestinal peptide (HSDAVFTDNYTRLRKQMAVKKYLNSILN; ends and bridges not checked; UniProt P01282 125-152, looked up) [VIP]” here?
The cAMP in macrophages was “increase cAMP levels in macrophages”.

What about the “dependence of cAMP effect on culture age” value [1] of the same molecule?
Its value is “only seen in the older cultures”.

And the “plateau of cAMP effect” value (cultured Schwann cells)?
The value was “did not plateau even at 10-4 M”.

What does the source list for calcitonin gene-related peptide [CGRP]?
cAMP in macrophages (macrophages): increase cAMP levels in macrophages; BrdU incorporation compared with forskolin ([2]; Fig. 6 b): comparable to the effect of forskolin; doubling time ([2]; pulsatile): ~ 4 d; cells synthesizing DNA in 24 h ([2]; pulsatile): ~25%; type of interaction with PDGF [2, 7]: synergistic; effect together with PDGF compared with forskolin and PDGF ([2]; with PDGF, pulsatile, Fig. 6 b): as effective as forskolin and PDGF; attenuation of cAMP response ([1]; compared with Schwann cells, 5 x 10-s M CGRP (so in the source), 200 µM IBMX, Fig. 4 b): even more rapid; desensitization at lower dose ([3]; 10^-8 M CGRP): desensitization was reduced with this dose; magnitude of cAMP response ([3]; 5 min with 5 x 10^-8 M CGRP without IBMX, Discussion): 8-10 fold; attenuation (desensitization) of cAMP response with time ([3]; Fig. 4 a): declined rapidly, even in the presence of IBMX; cAMP over basal after 1 h ([3]; maximal dose of CGRP, declined even in the presence of IBMX, Fig. 4 a): twofold; increase in cAMP over basal after 5 min ([3]; maximal dose of CGRP, without IBMX, high density, 4 d in defined medium, Fig. 4 a): eightfold; activity of CGRP after 3 h incubation with Schwann cells ([3]; medium from Schwann cells incubated with CGRP for 3 h transferred to fresh cultures, 5 min, Fig. 5): a comparable stimulation of cAMP; substrate of neutral endopeptidase 24.11 [4]: very good substrate

Which results are given for CC(C)NCC(O)c1ccc(O)c(O)c1 (stereo not shown) [isoproterenol]?
BrdU incorporation compared with forskolin ([2]; Fig. 6 b): comparable to the effect of forskolin; doubling time ([2]; pulsatile): ~ 4 d; cells synthesizing DNA in 24 h ([2]; pulsatile): ~25%; type of interaction with PDGF [2, 7]: simply additive; dependence of cAMP response on culture age ([3]; 3-d versus 8-d cells, 5 min, Fig. 1): more pronounced in 8-d cells; attenuation (desensitization) of cAMP response with time ([3]; Fig. 4 a): declined with time in similar fashion to the CGRP response; plateau of cAMP effect (cultured Schwann cells): did not plateau even at 10-4 M

Which “promotion of Schwann cell proliferation” value (Schwann cells) does the source give for “FGF-1: growth factor, literature mitogen” here?
Its value is “promote the proliferation”.

With cholera toxin as the molecule, how does the “potentiation of response to growth factors” value (Schwann cells) read?
Its value is “greatly potentiated”.

With CCCC(=O)Nc1ncnc2c1ncn2[C@@H]1O[C@@H]2COP(=O)(O)O[C@H]2[C@H]1OC(=O)CCC [dibutyryl cAMP] as the molecule, how does the “potentiation of response to growth factors” value (Schwann cells; [8]) read?
Its value is “greatly potentiated”.

Which results are given for C=C[C@@]1(C)CC(=O)[C@]2(O)[C@@]3(C)[C@@H](O)CCC(C)(C)[C@@H]3[C@H](O)[C@H](OC(C)=O)[C@@]2(C)O1 [forskolin]?
increase in BrdU incorporation, together with PDGF ([2]; fold, with 10 ng/ml PDGF-BB, pulsatile, every 3 h with 3-h wash-out, Fig. 6 b): eightfold; type of interaction with PDGF [2, 7]: synergistic; DNA synthesis (Schwann cells; 1 µM forskolin and PDGF, ref Stewart et al., 1991): no DNA synthesis; cells incorporating BrdU in 24 h (Schwann cells; PDGF and 10 µM forskolin, ref Stewart et al., 1991): 6%; potentiation of response to growth factors (Schwann cells; [8]): greatly potentiated; erbB2 receptor expression (erbB2 receptor): upregulated; synthesis of PDGF beta receptor (PDGF receptor): increased synthesis; treatment time required to increase PDGF beta receptor mRNA (PDGF receptor): 12 to 24 h; effect of a single 3-h pulse on PDGF beta receptor mRNA (PDGF receptor; single 3-h pulse): ineffective; effect on PDGF-induced proliferation of fibroblasts [5]: inhibits the proliferation of sciatic nerve fibroblasts induced by PDGF; doubling time ([6]; 1 µM forskolin with PDGF, continuous): ~ 2 d; Schwann cells incorporating BrdU in 24 h ([6]; 1 µM forskolin with PDGF, continuous, range in at least 10 different experiments): 40-60%

With “FGF-2: growth factor, literature mitogen” as the molecule, how does the “promotion of Schwann cell proliferation” value (Schwann cells) read?
Its value is “promote the proliferation”.

B1: PDGF: Recombinant human PDGF-BB purchased from R&D Systems (protein, UniProt P01127 82-190, looked up)
Platelet-derived growth …: SLGSLTIAEPAMIAECKTRTEVFEISRRLIDRTNANFLVWPPCVEVQRCSGCCNNRNVQCRPTQVQLRPVQVRKIEIVRKKPIFKKATVTLEDHLACKCETVAAARPVT
Which “promotion of Schwann cell proliferation” value (Schwann cells) does the source give for B1 here?
Its value is “promote the proliferation”.

What about the doubling time ([6]; PDGF alone) of the same molecule?
Its doubling time is 10 days.

What about the “Schwann cells incorporating BrdU in 24 h” value ([6]; defined medium with PDGF alone (before forskolin), Discussion) of the same molecule?
The value was 10%.
